Columns and labels:
ERK 2 = ERK 2 (Homo sapiens, UniProt P28482); test: Enzymatic inhibition assay (ADP-Glo Plus luminescence kinase assay), ERK2; assay type: biochemical; settings: 100 nM compound
Description: (§1) All compounds were diluted in 10% DMSO and tested in 10-dose with 3-fold serial dilution starting at a concentration of 1 μM. Of the dilution, 5 µL was added to a 50 µL reaction so that the final concentration of DMSO is 1% in all of reactions. After all of the reaction mixtures were conducted at 30 °C for 40 min, the assay was performed using ADP-Glo Plus luminescence kinase assay kit. The luminescence signal and the intensity of the luminescence signal value were detected using a multi-well spectrophotometer (the MD-SpectraMax M5 multifunctional microplate reader). It was directly proportional to the inhibition of enzyme activity.

PI3Kα = PI3Kα (Homo sapiens, UniProt P42336); test: Enzymatic inhibition assay (ADP-Glo Plus luminescence kinase assay), PI3Kα; assay type: biochemical; settings: 100 nM compound
Description: as §1, with “The 50 µL reaction mixture contains 40 mM Tris-HCl, pH 7.4, 10 µM ATP, 10 mM MgCl2, 0.1 mg/mL BSA, 1 mM DTT, 0.2 ug/mL ERK 2, ERK 1, PI3Kα, PI3Kβ, PI3Kγ or PI3Kδ and 100 uM lipid substrate. All” for “All”, “activity. The experimental results were converted into active percentages, a dose-response curve is drawn, and the IC50 value of inhibition was calculated using […] PRISM 5 nonlinear regression.” for “activity.”

HEC1B = test: Anti-proliferation assay (MTT, 72 h), HEC1B; assay type: cell-based; settings: Homo sapiens, HEC-1B, HEC1B cells
Description: (§2) Human cancer cell lines HCT116 and HEC1B were cultured in media with 10% FBS (GIBCO, Invitrogen Corporation, NY, USA) at 37 °C in a 5% (v/v) CO2 humidified incubator. The logarithmic growth phase cells were seeded in a 96-well plate with a density of 1 × 10^5 cells/mL, cultured at 37 °C, 5% CO2. Until the cells were 90% confluent, the medium containing compound was added to incubate for 72 h, and then the cell viability was tested by MTT analysis. Taking the drug concentration as the abscissa and the percentage of proliferation inhibitory activity corresponding to each concentration as the ordinate, using Graphpad Prism 5 to do nonlinear regression, the IC50 value of each compound was calculated.

Solubility = assay type: physicochemical; settings: relative to parent after introducing a hydrophilic group at the pyrazole NH
HCT116 = test: Anti-proliferation assay (MTT, 72 h), HCT116; assay type: cell-based; settings: Homo sapiens, HCT-116, HCT116 cells
Description: as §2

Sequence of PI3Kα (P42336 whole entry): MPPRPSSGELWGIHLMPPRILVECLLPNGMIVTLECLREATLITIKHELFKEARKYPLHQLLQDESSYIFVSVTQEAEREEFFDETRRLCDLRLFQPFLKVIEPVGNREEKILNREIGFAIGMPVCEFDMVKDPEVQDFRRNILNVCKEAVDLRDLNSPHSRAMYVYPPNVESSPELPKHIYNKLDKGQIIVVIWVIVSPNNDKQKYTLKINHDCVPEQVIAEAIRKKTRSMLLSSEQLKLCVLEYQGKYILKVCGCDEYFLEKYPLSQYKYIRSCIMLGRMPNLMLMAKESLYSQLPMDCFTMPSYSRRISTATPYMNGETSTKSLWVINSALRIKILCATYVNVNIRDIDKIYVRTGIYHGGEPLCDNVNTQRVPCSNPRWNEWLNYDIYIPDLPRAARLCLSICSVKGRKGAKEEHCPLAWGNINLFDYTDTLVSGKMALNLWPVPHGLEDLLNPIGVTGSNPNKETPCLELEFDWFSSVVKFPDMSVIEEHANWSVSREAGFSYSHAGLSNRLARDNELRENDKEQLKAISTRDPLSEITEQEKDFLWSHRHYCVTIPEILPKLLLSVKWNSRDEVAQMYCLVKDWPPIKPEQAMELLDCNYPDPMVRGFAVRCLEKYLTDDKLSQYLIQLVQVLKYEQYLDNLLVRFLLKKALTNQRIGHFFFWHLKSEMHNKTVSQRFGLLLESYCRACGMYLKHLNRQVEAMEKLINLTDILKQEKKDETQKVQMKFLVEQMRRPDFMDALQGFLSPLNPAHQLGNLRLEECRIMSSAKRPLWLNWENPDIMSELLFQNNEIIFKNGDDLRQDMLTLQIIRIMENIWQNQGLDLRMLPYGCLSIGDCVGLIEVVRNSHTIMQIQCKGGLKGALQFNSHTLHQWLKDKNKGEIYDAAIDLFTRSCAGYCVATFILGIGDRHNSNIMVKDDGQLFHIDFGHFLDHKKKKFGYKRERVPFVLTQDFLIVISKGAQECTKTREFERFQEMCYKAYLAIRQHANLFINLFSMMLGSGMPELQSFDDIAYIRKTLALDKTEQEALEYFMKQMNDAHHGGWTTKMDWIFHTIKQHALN
Sequence of PI3Kα (P27986 whole entry partner): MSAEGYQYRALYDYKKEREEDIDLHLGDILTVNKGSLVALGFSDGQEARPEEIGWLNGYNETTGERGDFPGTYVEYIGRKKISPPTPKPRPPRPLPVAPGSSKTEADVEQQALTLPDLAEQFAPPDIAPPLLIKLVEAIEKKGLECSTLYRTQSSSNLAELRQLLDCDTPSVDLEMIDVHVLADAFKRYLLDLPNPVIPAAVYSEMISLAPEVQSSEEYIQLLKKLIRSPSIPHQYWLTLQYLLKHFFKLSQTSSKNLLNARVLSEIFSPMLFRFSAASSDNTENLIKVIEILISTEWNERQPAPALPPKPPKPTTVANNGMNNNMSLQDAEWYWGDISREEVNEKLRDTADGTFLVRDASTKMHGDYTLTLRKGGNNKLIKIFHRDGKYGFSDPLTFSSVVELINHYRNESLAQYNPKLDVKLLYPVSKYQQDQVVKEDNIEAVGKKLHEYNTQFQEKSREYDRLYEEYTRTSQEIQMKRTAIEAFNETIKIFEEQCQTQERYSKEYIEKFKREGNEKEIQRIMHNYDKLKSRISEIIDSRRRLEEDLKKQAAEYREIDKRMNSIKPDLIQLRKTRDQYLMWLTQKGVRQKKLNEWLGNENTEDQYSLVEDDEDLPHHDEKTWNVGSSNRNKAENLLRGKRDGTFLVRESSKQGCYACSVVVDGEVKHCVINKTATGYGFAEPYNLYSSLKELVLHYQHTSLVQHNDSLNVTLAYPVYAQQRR
Sequence of ERK 2 (P28482 whole entry): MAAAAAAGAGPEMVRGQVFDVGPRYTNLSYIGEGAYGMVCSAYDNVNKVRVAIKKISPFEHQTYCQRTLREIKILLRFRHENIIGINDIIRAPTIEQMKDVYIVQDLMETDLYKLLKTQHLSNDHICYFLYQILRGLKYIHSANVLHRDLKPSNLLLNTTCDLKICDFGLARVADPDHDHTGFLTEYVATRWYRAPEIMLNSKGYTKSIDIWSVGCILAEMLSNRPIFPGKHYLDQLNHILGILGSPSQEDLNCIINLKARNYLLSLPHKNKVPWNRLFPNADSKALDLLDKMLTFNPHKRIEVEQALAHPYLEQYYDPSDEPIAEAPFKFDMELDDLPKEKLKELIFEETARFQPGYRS

- inhibition at 0.1 µM (ERK 2): 21.4%
- inhibition at 0.1 µM (PI3Kα): 63.8%
- solubility (Solubility): ameliorated
- IC50 (HCT116): 1.76 µM
Compound: O=C(Nc1ncc2ncc(-c3cnn(CCN4CCOCC4)c3)cc2n1)NC1CCCC1 [32l, 1-Cyclopentyl-3-(7-(1-(2-morpholinoethyl)-1H-pyrazol-4-yl)pyrido[3,2-d]pyrimidin-2-yl)urea]
- IC50 (HEC1B): 3.63 µM

From article PMC7730961, “Discovery of Novel Dual Extracellular Regulated Protein Kinases (ERK) and Phosphoinositide 3-Kinase (PI3K) Inhibitors as a Promising Strategy for Cancer Therapy” (Molecules, 2020)
